Results on two compounds are retold here after patent US20230250182A1, “METHODS FOR TREATING CANCER OR VON-HIPPEL LINDAU DISEASE USING A COMBINATION OF A PD-1 ANTAGONIST, A HIF-2 ALPHA INHIBITOR, AND LENVATINIB OR A PHARMACEUTICALLY ACCEPTABLE SALT THEREOF” (Merck Sharp & Dohme LLC, priority 2020, published 2023).

The test system of one series is KPC-2838c3 cells. The series is described as follows: VHL proficient mouse syngeneic pancreatic tumor model. The format is in vivo, C57BL/6J mice. The following applies: for Final CRs (complete tumor regressions) / Final PRs (partial tumor regressions): 10 mice per group; for Final CRs (complete tumor regressions): CR = no observable tumor; for Final PRs (partial tumor regressions): PR = tumor volume lower than original size when treatment began; for TGI (tumor growth inhibition): Day 24, MK-6482 3 mg/kg BID oral, lenvatinib 10 mg/kg QD oral, anti-PD-1 10 mg/kg i.p. every 5 days. The text has this: Prior to treatment initiation, female C57BL/6J mice aged 7 weeks weighing between 18 to 21 grams were anesthetized and injected into the rear flank with 0.5×10^6 log-phase sub-confluent KPC-2838c3 cells. Ten (10) days later when the mean tumor volume of inoculated animals reached approximately 95 mm^3, mice were pair-matched into 8 treatment groups consisting of 10 mice per group. Treatment groups consisted of: 1) 0.5% methylcellulose (Vehicle)+Isotype mouse IgG1 antibody (mIgG1); 2) MK-6482+mIgG1; 3) Lenvatinib+mIgG1; 4) Vehicle+anti-mouse PD-1 IgG1 antibody; 5) MK-6482+anti-PD-1; 6) Lenvatinib+anti-PD-1; 7) MK-6482+Lenvatinib; 8) MK-6482+Lenvatinib+anti-PD-1. Vehicle and MK-6482 were orally gavage-dosed twice daily (BID) at 3 mg/kg body weight. Lenvatinib was orally dosed once daily (QD) at 10 mg/kg body weight. Isotype control, a mouse monoclonal antibody specific for adenoviral hexon of the isotype IgG1, and anti-PD-1 antibodies were dosed intraperitoneally every 5 days at 10 mg/kg body weight. Start of treatments was considered Day 0 and dosing based on schedules continued as described until Day 45. Caliper measurements of tumors and body weights were captured twice weekly. Statistical analyses were performed by one-way ANOVA with Tukey multiple comparison tests at the timepoints specified when treatment groups reached endpoints.
CRs were defined as no observable tumor whereas PRs were tumors whose volume was lower than the original tumor size when treatment began. There was no significant body weight loss or adverse events observed in any animals treated with the above therapies, indicating the treatments were well tolerated.

Series [1] in a line: Phase 1 cross-over food-effect PK study of single dose MK-6482 in healthy volunteers. Format: in vivo, human. The following applies: single dose of 120 mg, healthy female adult volunteers.
The nature of series [2]: FIH Phase 1 study of tolerability, safety, PK and PD of MK-6482 in participants with advanced solid tumors. Format: in vivo, human. As for the experimental part: As of 6 Sep. […] 52 additional participants with advanced RCC were treated in an expansion cohort (Part 1B) at the clinical dose of 120 mg QD.
Series [3] in a line: Phase 2 open-label efficacy and safety study in VHL disease associated RCC. The format is in vivo, human. The following applies: 120 mg QD, 61 participants with VHL disease associated RCC. The text has this:
A Phase 2, open-label efficacy and safety study in participants with VHL disease associated RCC is ongoing. As of 6 Sep.

The mark [4] stands for this setting: combined dose escalation and expansion cohorts.
Where [5] appears, read: dose escalation (Part 1A) 20 to 240 mg QD and 120 mg BID.

As for `COc1cc2nccc(Oc3ccc(NC(=O)NC4CC4)c(Cl)c3)c2cc1C(N)=O` [Lenvatinib, 4-[3-chloro-4-(cyclopropylaminocarbonyl)aminophenoxy]-7-methoxy-6-quinolinecarboxamide], in the series with KPC-2838c3 cells, the “Final CRs (complete tumor regressions)” value is on record as 0/10 PRs, 0/10 CRs; the “Final PRs (partial tumor regressions)” value is 0/10 PRs, 0/10 CRs; the “TGI (tumor growth inhibition)” value amounted to 90%.
Broadly, the Cmax is the maximum level reached in the sampled fluid or tissue. For orientation: Vd/F means the volume of distribution divided by bioavailability. For orientation: Tmax means the time from dosing to the highest level. On to `CS(=O)(=O)c1ccc(Oc2cc(F)cc(C#N)c2)c2c1[C@H](O)[C@H](F)[C@@H]2F` [MK-6482, 3-[(1S,2S,3R)-2,3-difluoro-1-hydroxy-7-methylsulfonyl-indan-4-yl]oxy-5-fluoro-benzonitrile], for which, in series [1], the “delay of time to peak MK-6482 exposure, median difference (Fed-Fasted)” value was 2 h and the “most common adverse event (AE) reported: headache” value amounted to 12.5%. Also, in series [1] (fed vs fasted), the “effect of high fat, high calorie meal on extent of MK-6482 exposure” value is on record as “did not affect” and the “lowering of maximum plasma MK-6482 concentration by high fat, high calorie meal” value was “approximately 35%”. Also, in series [2] (120 mg BID cohort), the “Grade 3 event of hypoxia (DLT)” value was found to be 1. Moreover, the “accumulation from Day 1 to Day 15” value in series [2] (120 mg QD expansion cohort (Part 1B)) amounted to 1.5 fold. In addition, in series [2] (120 mg QD expansion cohort (Part 1B), Day 15, read-out: mean steady state Cmax), the peak concentration (Cmax) came to 4.67 µM. Also, the “Grade 4 event of thrombocytopenia (DLT)” value in series [2] (240 mg QD cohort) is reported as 1. In series [2] (setting [4]), the “most common AEs (occurring in ≥20% of participants)” value was “anemia, fatigue, dyspnea, nausea, and peripheral edema”; the “most common Grade 3 AEs (in ≥5% of participants)” value was “anemia and hypoxia”. Moreover, in series [2] (setting [5]), the MTD entry is “not reached” and the “treatment-related DLTs observed” value is 2. Besides, in series [2] (human, in vivo), the Vd/F fell in the range of 106 to 266 L and the “estimated CL/F” value is 5.22 to 14.4 L/h. In addition, the Tmax in series [2] (human, in vivo, participants with advanced solid tumors, oral, read-out: median tmax) fell in the range of 1 to 2.8 h. Moreover, the exposure versus dose entry in series [2] (participants with advanced solid tumors) is recorded as “exposure increased with dose”. Also, the “most common AE of ≥Grade 3 toxicity (reported by ≥5% of participants)” value in series [3] is reported as “Fatigue”. For the same compound, in the series on KPC-2838c3 cells, the “Final CRs (complete tumor regressions)” value is listed as 0/10 PRs, 0/10 CRs; the “Final PRs (partial tumor regressions)” value was 0/10 PRs, 0/10 CRs; the “TGI (tumor growth inhibition)” value was determined as 16%.
